Laboratory results taken from US11787788B2, “Benzimidazole derivatives, and pharmaceutical compositions and methods of use thereof” (CAPELLA THERAPEUTICS, INC., priority 2014, dated 2023).

Columns and labels:
Format in all cases: cell-based
[1] = system: H1975 human NSCLC adenocarcinoma cells; assay: Cell proliferation assay, drug-resistant mutant ERBB1 (T790M/L858R); conditions: for GI50: Homo sapiens, NCI-H1975, 72 hrs treatment, class symbols; for Selectivity Ratio (Wild-type ERBB1/Mutant ERBB1) A431/H1975: ratio of GI50 A431/H1975; for Selectivity Ratio (Wild-type ERBB1/Mutant ERBB1) HEKn/H1975: ratio of GI50 HEKn/H1975
Protocol: (§1) The biological activity of a test compound was determined using cell proliferation assays. The activity against wild-type ERBB1 was determined using A431 human epidermoid carcinoma cells (ATCC) and human epidermal keratinocytes, neonatal, or HEKn cells (ATCC).
(§2) A431 cells were grown in DMEM (Invitrogen) supplemented with 10% FBS (Lonza), 1% penicillin-streptomycin, and 2 mM glutamine (Invitrogen). HEKn cells were grown in EPILIFE® (Invitrogen) supplemented with HKGS (Invitrogen). HCC827 and H1975 were cultured in RPMI1640 supplemented with 10% FBS (Lonza), 1% penicillin-streptomycin, and 2 mM glutamine (Invitrogen). Cells were maintained and propagated at 37° C. and 5% CO2 in a humidified cell culture incubator. Aliquots of cells from early passages were preserved for liquid nitrogen storage. Frozen vials of cells were thawed at 37° C. water bath. Cells were spun to remove freezing medium. The newly revived frozen cells were adapted in culture for 10 days before used for compound testing. Cells used in the assay were less than 20 subculture passages or 3 months in culture.
(§3) The test compounds were dissolved in dimethylsulfoxide (DMSO) and stored at −20° C. before testing. […] The cells were placed in a culture incubator overnight. Next day, test compounds in DMSO were added to the cells and placed back in the culture incubator for 72 hrs. In the meantime, the cell numbers at time zero of the compound treatment (T0) was measured by ENERCOUNT® (Codex BioSolutions). At the end of the compound treatment, the cell numbers were again measured by EnerCount as T72 values. The untreated controls (Ctrl) were cell numbers recorded from the 0.1% DMSO treatment. The percent growth inhibition by the test compound was calculated by the formula: (1−(T72−T0)/(Ctrl−T0))×100.
(§4) The results are summarized in Tables 1 and 2, wherein A represents a value no greater than 500 nM, B represents a value greater than 500 nM but no greater than 1 μM, C represents a value greater than 1 μM but no greater than 5 μM, and D represents a value greater than 5 μM; and wherein A′ represents a ratio of greater than 10, B′ represents a ratio of no greater than 10 but no less than 5, C′ represents a ratio of no greater than 5 but no less than 2, and D′ represents a ratio of no greater than 2.

[2] = system: HCC827 human NSCLC adenocarcinoma cells; assay: Cell proliferation assay, mutant ERBB1 (exon 19 deletion); conditions: for GI50: Homo sapiens, HCC827, 72 hrs treatment; for Selectivity Ratio (Wild-type ERBB1/Mutant ERBB1) A431/HCC827: ratio of GI50 A431/HCC827; for Selectivity Ratio (Wild-type ERBB1/Mutant ERBB1) HEKn/HCC827: ratio of GI50 HEKn/HCC827
Protocol: as §1, §2, §3, §4

[3] = system: A431 human epidermoid carcinoma cells; assay: Cell proliferation assay, wild-type ERBB1; conditions: A-431, 72 hrs treatment, class symbols
Protocol: as §1, §2, §3, §4

[4] = system: human epidermal keratinocytes, neonatal, or HEKn cells; assay: Cell proliferation assay, wild-type ERBB1; conditions: Keratinocyte, 72 hrs treatment
Protocol: as §1, §2, §3, §4

| Structure (SMILES) | GI50 [1] [nM] | GI50 ([2]; class symbols) [nM] | GI50 [3] [nM] | GI50 ([2]; numeric values, unit inferred) [nM] | Selectivity Ratio (Wild-type ERBB1/Mutant ERBB1) A431/H1975 [1] | Selectivity Ratio (Wild-type ERBB1/Mutant ERBB1) HEKn/H1975 [1] | Selectivity Ratio (Wild-type ERBB1/Mutant ERBB1) A431/HCC827 [2] | Selectivity Ratio (Wild-type ERBB1/Mutant ERBB1) HEKn/HCC827 [2] | GI50 ([4]; class symbols) [nM] | GI50 ([4]; numeric values, unit inferred) [nM] |
| --- | --- | --- | --- | --- | --- | --- | --- | --- | --- | --- |
| C=CC(=O)N1CCC(Oc2cccc3nc(NC(=O)c4ccnc(C)c4)n([C@@H]4CCCCN(C(=O)C=C)C4)c23)CC1 [Compound A3, (R)—N-(1-(1-acryloylazepan-3-yl)-7-((1-acryloylpiperidin-4-yl)oxy)-1H-benzo[d]imidazol-2-yl)-2-methylisonicotinamide] | < 500 | < 500 | > 5000 | – | B′ (B′ represents a ratio of no greater than 10 but no less than 5) | A′ (A′ represents a ratio of greater than 10) | A′ (A′ represents a ratio of greater than 10) | A′ (A′ represents a ratio of greater than 10) | 1000 to 5000 | – |
| C=CC(=O)Nc1cccc(Nc2nc(Nc3ccc(N4CCN(C(C)=O)CC4)cc3OC)ncc2C(F)(F)F)c1 [CO-1686, reference compound] | – | – | – | 32 | – | A′ (A′ represents a ratio of greater than 10) | – | A′ (A′ represents a ratio of greater than 10) | – | 2500 |
| C=CC(=O)N1CCCC[C@@H](n2c(NC(=O)c3ccnc(C)c3)nc3cccc(OC4CCN(C(C)=O)CC4)c32)C1 [Compound A2, (R)—N-(7-((1-acetylpiperidin-4-yl)oxy)-1-(1-acryloylazepan-3-yl)-1H-benzo[d]imidazol-2-yl)-2-methylisonicotinamide] | < 500 | < 500 | 500 to 1000 | – | B′ (B′ represents a ratio of no greater than 10 but no less than 5) | A′ (A′ represents a ratio of greater than 10) | A′ (A′ represents a ratio of greater than 10) | A′ (A′ represents a ratio of greater than 10) | > 5000 | – |
| C=CC(=O)N1CCCC[C@@H](n2c(NC(=O)c3ccnc(C)c3)nc3cccc(OC4CCN(CC)CC4)c32)C1 [Compound A1, (R)—N-(1-(1-Acryloylazepan-3-yl)-7-((1-ethylpiperidin-4-yl)oxy)-1H-benzo[d]imidazol-2-yl)-2-methylisonicotinamide] | < 500 | < 500 | < 500 | – | A′ (A′ represents a ratio of greater than 10) | A′ (A′ represents a ratio of greater than 10) | A′ (A′ represents a ratio of greater than 10) | A′ (A′ represents a ratio of greater than 10) | 1000 to 5000 | – |

Second part, led by results:

| GI50 [1] [nM] | GI50 ([2]; class symbols) [nM] | GI50 [3] [nM] | GI50 ([2]; numeric values, unit inferred) [nM] | Structure (SMILES) | Selectivity Ratio (Wild-type ERBB1/Mutant ERBB1) A431/H1975 [1] | Selectivity Ratio (Wild-type ERBB1/Mutant ERBB1) HEKn/H1975 [1] | Selectivity Ratio (Wild-type ERBB1/Mutant ERBB1) A431/HCC827 [2] | Selectivity Ratio (Wild-type ERBB1/Mutant ERBB1) HEKn/HCC827 [2] | GI50 ([4]; class symbols) [nM] | GI50 ([4]; numeric values, unit inferred) [nM] |
| --- | --- | --- | --- | --- | --- | --- | --- | --- | --- | --- |
| < 500 | < 500 | 1000 to 5000 | – | Cc1cc(C(=O)Nc2nc3cc(OC(F)(F)F)cc(Cl)c3n2[C@@H]2CCCCN(C(=O)/C=C/CN(C)C)C2)ccn1 [Compound A5, (R,E)-N-(7-Chloro-1-(1-(4-(dimethylamino)but-2-enoyl)azepan-3-yl)-5-(trifluoromethoxy)-1H-benzo[d]imidazol-2-yl)-2-methylisonicotinamide] | C′ (C′ represents a ratio of no greater than 5 but no less than 2) | A′ (A′ represents a ratio of greater than 10) | A′ (A′ represents a ratio of greater than 10) | A′ (A′ represents a ratio of greater than 10) | 1000 to 5000 | – |
| < 500 | < 500 | 1000 to 5000 | – | C=CC(=O)N1CCCC[C@@H](n2c(NC(=O)c3ccnc(C)c3)nc3cc(OC(F)(F)F)cc(Cl)c32)C1 [Compound A4, (R)—N-(1-(1-Acryloylazepan-3-yl)-7-chloro-5-(trifluoromethoxy)-1H-benzo[d]imidazol-2-yl)-2-methylisonicotinamide] | C′ (C′ represents a ratio of no greater than 5 but no less than 2) | C′ (C′ represents a ratio of no greater than 5 but no less than 2) | A′ (A′ represents a ratio of greater than 10) | A′ (A′ represents a ratio of greater than 10) | 1000 to 5000 | – |
